Experimental data taken from patent EP4711372A1, “CRYSTAL FORM OF HETEROCYCLIC COMPOUND, SALT THEREOF, CRYSTAL FORM OF SALT THEREOF, AND USE” (Hubei Bio-Pharmaceutical Industrial Technological Institute …, priority 2023, dated 2024).
In brackets after ≈: the same amount, converted by molar mass. Read-outs that look alike come from different tables or passages of the source.

Assays:
[1] = target: T1, 15-PGDH (Homo sapiens, UniProt P15428); experiment: 15-PGDH enzyme inhibition assay (fluorescence, NAD+/PGE2); format: biochemical; settings: 15-PGDH inhibition
T1 construct: purchased R&D Systems 5660-DH-010
T1 sequence (P15428 1-266): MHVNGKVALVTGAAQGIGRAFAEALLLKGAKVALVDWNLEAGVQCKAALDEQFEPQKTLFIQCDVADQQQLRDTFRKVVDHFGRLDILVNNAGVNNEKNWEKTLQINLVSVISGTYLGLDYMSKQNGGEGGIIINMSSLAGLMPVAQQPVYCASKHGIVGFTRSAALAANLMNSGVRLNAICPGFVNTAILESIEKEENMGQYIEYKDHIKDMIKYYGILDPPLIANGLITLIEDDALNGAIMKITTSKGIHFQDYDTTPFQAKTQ
Protocol: 15-PGDH (R&D Systems, Cat. No. 5660-DH-010) was prepared to twice the final concentration, i.e., 30 nM, using Assay Buffer (50 mM Tris-HCl, pH 7.5, 0.01% Tween 20 by volume). 15-PGDH was then added to a 384-well white plate (Cisbio Bioassays, Cat. No. 66PL384025) at 8 µL/well. Negative control wells (with Assay Buffer only and without enzyme) were set. The compound was then prepared to 4 times the final concentration using Assay Buffer, i.e., diluted 3-fold to 10 concentrations starting from 4000 nM. The compound was added to the above white plate at 4 µL/well, mixed well, centrifuged at 1000 rpm for 1 minute, and incubated at 25°C for 10 minutes. Both positive control wells (with 15-PGDH only) and negative control wells (without 15-PGDH) were set. A mixture of NAD^+ (Select, Cat. No. S2518) and PGE2 (R&D Systems, Cat. No.:2296110) was then prepared using Assay Buffer. NAD^+ and PGE2 were prepared to four times their final concentrations, i.e., 2 mM and 0.12 mM, respectively, using Assay Buffer. The mixture was then added to the above white plate at 4 µL/well, mixed well, centrifuged at 1000 rpm for 1 minute, and incubated at 25°C for 30 minutes for the reaction. The fluorescence was measured at an excitation wavelength of 340 nm and an emission wavelength of 485 nm using a TECAN SPARK 20M microplate reader. The IC50 value was calculated using four-parameter fitting with GraphPad Prism 8.0.

[2] = Pharmacokinetics in mice (oral gavage); format: in vivo; settings: mouse, plasma, male CD-1 mice, 10 mg/kg
Protocol: The pharmacokinetic properties of the compounds obtained in Example 1 in mice were determined with reference to the following experimental methods.
Three male CD-1 mice were administered by oral gavage at a dose of 10 mg/kg, and the vehicle was 5% DMSO + 10% Solutol + 85% Saline. The mice were fasted overnight, and the time points of blood collection were before administration and at 15 minutes, 30 minutes, 1 hour, 2 hours, 4 hours, 8 hours, and 24 hours after administration. Blood samples were centrifuged at 6,800 g for 6 minutes at 2 to 8°C, and plasma was collected and stored at - 80°C. 10 µL of plasma at each time point was taken and added with 200 µL of methanol containing 100 ng/mL internal standard. The mixture was vortexed, mixed well, and centrifuged at 18,000 g for 7 minutes at 2 to 8°C. 200 µL of the mixture was transferred to a 96-well injection plate for LC-MS/MS quantitative analysis. The main pharmacokinetic parameters were analyzed using WinNonlin 7.0 software with non-compartmental model.

[3] = Dynamic solubility test of crystal forms in H2O, SGF, FaSSIF and FeSSIF; format: physicochemical; settings: 37°C; for S: concentration of the compound represented by formula I-3B / solubility thermodynamic at 24 h: loading 10 mg/mL; for solubility thermodynamic at 24 h: read-out: S: concentration of the compound represented by formula I-3B; for FC: crystal form conversion: XRPD; for pH: filtrate
Protocol: (§1) The purity test, dynamic solubility test, and stability test in the assay were performed using an ultra-performance liquid chromatograph (UPLC).
After sampling at each time point, the samples were centrifuged (12,000 rpm, 2 minutes) and filtered (0.45 µm PTFE membrane), and the HPLC concentration and pH value of the filtrate were measured. The solid samples after centrifugation were tested for XRPD.

[4] = Solid-state stability evaluation test (XRPD and HPLC); format: physicochemical
Protocol: as §1
Their physical and chemical stability were evaluated by XRPD and HPLC.

[5] = Hygroscopicity test (DVS); format: physicochemical
Protocol: Dynamic vapor sorption (DVS) curves were collected on DVS Intrinsic Plus from SMS (Surface Measurement Systems). The relative humidity at 25°C was corrected using the deliquescence points of LiCl, Mg(NO3)2, and KCl.

[6] = test system: mouse IPF prevention model; experiment: Efficacy test on mouse IPF prevention model (Bleomycin-induced); format: in vivo, mice; settings: mean; Nintedanib 60 mg/kg qd, oral gavage, 21 consecutive days
Protocol: Male mice were adaptively fed for 1 to 2 weeks and after reaching the standard weight (25 g), the IPF model (idiopathic pulmonary fibrosis model) was induced with a certain dose of Bleomycin. On the day of modeling, the animals were randomly divided into a model group and an administration group according to their weight, in which the administration groups were administered Nintedanib (60 mg/kg, once a day (qd)) and compound I-3B obtained in Example 1 (2.5 mg/kg, twice a day (bid)) by oral gavage for 21 consecutive days while the vehicle control group was administered blank vehicle. During the administration period, the animals were weighed every 3 days. At the end of the last day of administration, the animals were euthanized. The lungs were removed from the thyroid cartilage (without perfusion), slowly perfused with 10% formalin until both lungs were filled, and fixed in 10% formalin 5 to 10 times the volume of the tissues after the trachea was ligated. The left lung tissues were embedded in paraffin wax, sectioned, and stained with HE and Masson Trichrome. The sections were subjected to panoramic scanning using a Hamamatsu NanoZoomer Digital Pathology (S210) slide scanner for pathological analysis.

[7] = test system: mouse IPF treatment model; experiment: Efficacy test on mouse IPF treatment model (Bleomycin-induced); format: in vivo, mice; settings: mean; Nintedanib 60 mg/kg qd, oral gavage, 14 consecutive days from day 7
Protocol: Male mice were adaptively fed for 1 to 2 weeks and after reaching the standard weight (25 g), the IPF model (idiopathic pulmonary fibrosis model) was induced with a certain dose of Bleomycin. On the day of modeling, the animals were randomly divided into a model group and an administration group according to their weight, in which the administration groups were administered Nintedanib (60 mg/kg, qd), low-dose compound I-3B obtained in Example 1 (1 mg/kg, bid), and high-dose compound I-3B obtained in Example 1 (2.5 mg/kg, bid) by oral gavage for 14 consecutive days starting from day 7 while the vehicle control group was administered blank vehicle. During the administration period, the animals were weighed twice a week. At the end of the last day of administration, the animals were euthanized. The lungs were removed from the thyroid cartilage (without perfusion), slowly perfused with 10% formalin until both lungs were filled, and fixed in 10% formalin 5 to 10 times the volume of the tissues after the trachea was ligated. The left lung tissues were embedded in paraffin wax, sectioned, and stained with HE and Masson Trichrome. The sections were subjected to panoramic scanning using a Hamamatsu NanoZoomer Digital Pathology (S210) slide scanner for pathological analysis.

Cn1nc2cc(N3CC4CC4c4cc(C(=O)N5CCC(F)(F)CC5)cnc43)ccn2c1=O (stereo not shown) [compound I-3, 7-(6-(4,4-difluoropiperidine-1-carbonyl)-1,1a,2,7b-tetrahydro-3H-cyclopropa[c][1,8]naphthyridin-3-yl)-2-methyl-[1,2,4]triazolo[4,3-a]pyridin-3(2H)-one]
IC50 [1]: 4.2 nM
AUC(0-t) [2]: 35500 ng·h/mL
Cmax [2]: 3710 ng/mL

Cn1nc2cc(N3C[C@H]4C[C@H]4c4cc(C(=O)N5CCC(F)(F)CC5)cnc43)ccn2c1=O [listing 1 of 2 here]
S: concentration of the compound represented by formula I-3B ([3]; FaSSIF, 1 hour): 2.6 mg/mL
S: concentration of the compound represented by formula I-3B ([3]; FaSSIF, 4 hours): 2.5 mg/mL
solubility thermodynamic at 24 h ([3]; FaSSIF, 24 hours): 2700 µg/mL (≈ 6.13 mM)
S: concentration of the compound represented by formula I-3B ([3]; FeSSIF, 1 hour): 3.0 mg/mL
S: concentration of the compound represented by formula I-3B ([3]; FeSSIF, 4 hours): 3.4 mg/mL
solubility thermodynamic at 24 h ([3]; FeSSIF, 24 hours): 3900 µg/mL (≈ 8.85 mM)
S: concentration of the compound represented by formula I-3B ([3]; H2O, 1 hour): 3.3 mg/mL
S: concentration of the compound represented by formula I-3B ([3]; H2O, 4 hours): 2.6 mg/mL
S: concentration of the compound represented by formula I-3B ([3]; SGF, 1 hour): 5.3 mg/mL
S: concentration of the compound represented by formula I-3B ([3]; SGF, 4 hours): 5.1 mg/mL
FC: crystal form conversion ([3]; FaSSIF, 1 hour): No
FC: crystal form conversion ([3]; FaSSIF, 4 hours): No
FC: crystal form conversion ([3]; FaSSIF, 24 hours): No
FC: crystal form conversion ([3]; FeSSIF, 1 hour): No
FC: crystal form conversion ([3]; FeSSIF, 4 hours): No
FC: crystal form conversion ([3]; FeSSIF, 24 hours): No
FC: crystal form conversion ([3]; H2O, 1 hour): No
FC: crystal form conversion ([3]; H2O, 4 hours): No
FC: crystal form conversion ([3]; H2O, 24 hours): No
FC: crystal form conversion ([3]; SGF, 1 hour): No
FC: crystal form conversion ([3]; SGF, 4 hours): No
FC: crystal form conversion ([3]; SGF, 24 hours): No
pH ([3]; FaSSIF, 1 hour): 6.46
pH ([3]; FaSSIF, 4 hours): 6.60
pH ([3]; FaSSIF, 24 hours): 6.70
pH ([3]; FeSSIF, 1 hour): 4.91
pH ([3]; FeSSIF, 4 hours): 4.96
pH ([3]; FeSSIF, 24 hours): 4.93
pH ([3]; H2O, 1 hour): 8.57
pH ([3]; H2O, 4 hours): 8.59
pH ([3]; H2O, 24 hours): 8.95
pH ([3]; SGF, 1 hour): 1.82
pH ([3]; SGF, 4 hours): 1.94
pH ([3]; SGF, 24 hours): 2.11
solubility thermodynamic at 24 h ([3]; simulated gastric fluid, SGF, 24 hours): 4700 µg/mL (≈ 10.7 mM)
solubility thermodynamic at 24 h ([3]; water, H2O, 24 hours): 900 µg/mL (≈ 2.04 mM)

Cn1nc2cc(N3C[C@H]4C[C@H]4c4cc(C(=O)N5CCC(F)(F)CC5)cnc43)ccn2c1=O [listing 2 of 2 here]
HPLC purity ([4]; peak at RRT 0.52 (impurity), 25°C/60% RH/open/1 week): 0.22 area%
HPLC purity ([4]; peak at RRT 0.52 (impurity), 40°C/75% RH/open/1 week): 0.22 area%
HPLC purity ([4]; peak at RRT 0.52 (impurity), 60°C/closed/1 day): 0.22 area%
HPLC purity ([4]; peak at RRT 0.52 (impurity), Onset): 0.22 area%
HPLC purity ([4]; peak at RRT 0.97 (impurity), 25°C/60% RH/open/1 week): 0.10 area%
HPLC purity ([4]; peak at RRT 0.97 (impurity), 40°C/75% RH/open/1 week): 0.09 area%
HPLC purity ([4]; peak at RRT 0.97 (impurity), 60°C/closed/1 day): 0.10 area%
HPLC purity ([4]; peak at RRT 0.97 (impurity), Onset): 0.10 area%
moisture absorption weight gain ([5]; 25°C/80% RH): 1.112%
change in crystal form after DVS testing (XRPD) ([5]; before and after DVS testing): no change in crystal form

COC(=O)c1ccc2c(c1)NC(=O)/C2=C(\Nc1ccc(N(C)C(=O)CN2CCN(C)CC2)cc1)c1ccccc1 [Nintedanib, reference compound]
Total pulmonary fibrosis score [6]: 3.39
Total pulmonary fibrosis score [7]: 2.84

Cn1nc2cc(N3CC4CC4c4cc(C(=O)N5CCC(F)(F)CC5)cnc43)ccn2c1=O (stereo not shown) [compound I-3A]
IC50 [1]: 12.2 nM
